Earlier results as cited in PMC6644309 (ACS Omega, 2018).
≈ marks a conversion by molar mass, not a printed value.

Key:
[1] = not given; remark: listed apart in the source
[2] = in vivo

- pKa, benzimidazole (basic) group, first: 4.1
- pKa, benzimidazole (basic) group, second: 6.0
- pKa, carboxylic (acidic) group: 3.5
- solubility in water ([1]; in water): 0.09 µg/mL (≈ 0.175 µM)
- solubility at pH 3–7 (in words) ([1]; pH 3–7, physiological pH): practically insoluble
- bioavailability [2]: 42–58%
SMILES: CCCc1nc2c(C)cc(-c3nc4ccccc4n3C)cc2n1Cc1ccc(-c2ccccc2C(=O)O)cc1 [TLM, 2-[4-[[4-methyl-6-(1-methylbenzimidazol-2-yl)-2-propylbenzimidazol-1-yl]methyl]phenyl]benzoic acid]
